# Data: patent US20070172453A1, “Tolerogenic approach for type 1 diabetes” (priority 2002, published 2007)
# Legend:
# Igf2-/- and wt mice [1] = experiment: Anti-IGF-2 humoral response after i.p. immunization of Igf2-/- and wt mice (ELISA); assay type: in vivo, mouse; details: i.p. immunization 5 μg
# Method: (§1) Mice immunization. Igf2^−/− and wt mice were injected i.p. with 5 μg of rmIGF-2 (R&D Systems) or with 5 μg of human insulin (Roche) to study the humoral response and with 50 μg of murine IGF-2-derived B11-25 (NEOSYSTEM)(SEQ ID NO:2) to analyze the cellular response. CFA (Sigma-Aldrich) (v/v) is used for the first injection and IFA (Sigma-Aldrich) (v/v) for the other injections. For humoral response, three injections separated by 20 days were performed. Blood test was performed 15 days after each injection in agreement with the Liege University ethic committee. For cellular response, two injections separated by 15 days were performed.
# (§2) Dosage of anti-IGF-2 and anti-insulin Abs. Abs against IGF-2 and insulin were detected and quantified using a specific ELISA procedure. Microplates (Nunc Maxisorp 468667; VVWR International) were incubated overnight at 4° C. with 2 μg/ml rmIGF-2 (R&D Systems) or 5 μg/ml human insulin (Roche) in 100 μl of 0.1 M NaHCO3 (pH 8.4). From this step, the procedure was identical between the two kinds of ELISA. SL buffer (0.01 M phosphate buffer, pH 7.4) was used as the basic buffer, and all reactions were incubated at 37° C. under agitation. […] The reaction was stopped with 50 μl of 0.4 N HCl, and the absorbance was measured at 450-620 nm with a spectrophotometer.
# [2] = cited from earlier work
# Igf2-/- and wt mice [3] = experiment: Anti-insulin humoral response after i.p. immunization of Igf2-/- and wt mice (ELISA); assay type: in vivo, mouse; details: three i.p. injections, mice with day 0 anti-insulin Ab lower than 1 in OD
# Method: as §1
# as §2, with “spectrophotometer. […]” for “spectrophotometer.”
# [4] = tested on: peripheral blood mononuclear cells (PBMCs); experiment: ELISpot of IL-10 secreting cells in PBMCs from healthy controls and adult Type 1 diabetics; assay type: cell-based, human; details: 50 μM, 48h
# Method: In comparison to the Insulin B9-23 peptide (SEQ ID NO:3), the presentation of IGF-2 B11-25 (SEQ ID NO:2) increases the number of IL-10 secreting cells in peripheral blood mononuclear cells (PBMCs) from adult Type I diabetics. PBMCs were isolated by a conventional method from the blood of 6 healthy controls and 18 adult Type 1 diabetic patients. The PBMCs were cultured for 48h in 96-well dishes in the presence of IGF-2 B11-25 (SEQ ID NO:2)(50 μM) or […] (50 μM).
# The data are presented in FIG. 4 as the number of spots per 10^5 cells. Statistical analyses were performed using Wilcoxon's test.
# [5] = tested on: spleen cells from Igf2-/- and wt mice; experiment: IL-2 production by IGF-2-specific T cells (spleen cells) after immunization and in vitro stimulation; assay type: cell-based, mouse; details: spleen cells in culture with murine IGF-2-derived B11-25 after two i.p. injections
# Method: as §1
# IL-2 production. After 48, 72, and 96 h of MLR or after 24 and 48 h of specific T cell culture, 800 μl were removed of each condition and IL-2 production released by Igf2^−/− and wt T cells in MLR was assessed by specific ELISA (Biosource Europe).
# Statistical analyses. The t test was used to compare Igf2^−/− and wt mice in IL-2 production and Ab production after immunization. The level of significance was p<0.05.
# PBMCs [6] = experiment: IL10 transcription in PBMCs by TaqMan real-time PCR; assay type: cell-based, human; details: 50 μM, 20 hours
# Method: Total RNA was extracted with the RNeasy Mini Kit (Qiagen, Calif., USA) from PBMCs isolated from 10 healthy controls and from 11 Type 1 diabetics, and cultured for 20 hours with IGF-2 B11-25 (SEQ ID NO:2)(50 μM) or Insulin B9-23 (SEQ ID NO:3 ) (50 μM). Total RNA was measured with a Nanodrop (NanoDrop Technologies, Wilmington, USA). Reverse transcription was performed with Transcriptor First Strand cDNA Synthesis Kit (Roche, Germany). PCR was performed with the following probes:
# IL10 transcripts were then quantified using a TaqMan procedure. Standard curves were established from a lot of plasmid containing IL10 according to the procedure described by other authors (Giulietti et al., Methods 25: 386, 2001). […] A strong positive relationship was evidenced between IL-10 concentrations as measured by ELISA and the number of IL10 transcripts as quantified by real-time PCR (R^2=0.62, P<0.0001; Spearman's test). Conclusions
# PBMCs [7] = experiment: IL-10 concentration in PBMC culture supernatants by ELISA; assay type: cell-based, human; details: 20h-culture
# Method: PBMCs were isolated from the blood of 10 healthy controls and 13 adult type 1 diabetics. After a 20h-culture, IL-10 concentration in the supernatants was measured using a specific ELISA (BioSource, Nivelles, Belgium).
# [8] = tested on: peripheral blood mononuclear cells (PBMCs); experiment: ELISPOT of IFN-γ and IL-10 secreting cells in PBMCs of DQ8+ type 1 diabetic adolescents; assay type: cell-based, human; details: for number of IFN-γ secreting cells / number of IL-10 secreting cells / ratio of IL-10/IFN-γ: peptide 50 μM, DQ8+ type 1 diabetic adolescents; for number of IFN-γ secreting cells / number of IL-10 secreting cells: 48 hours, 1×10^5 PBMCs/well, ±SEM
# Method: Ten diabetic patients were selected (6 females, 4 males; age range: 7-16 years of age) which were positive for the DQ8 allele. With the assistance of endocrine pediatricians, appropriate arrangements were made for two sampling sessions. Written and informed consent was obtained from the parents of the adolescents. For each patient, 20 ml of blood was collected in tubes containing EDTA. These tubes were immediately sent to Cypro SA (Brussels) where peripheral blood mononuclear cells (PBMCs) were isolated using the Lymphoprep™ (Invitrogen) isolation technique.
# ELISPOT Assays (Cypro): The general methodology has been described by Tary-Lehmann et al. (see, e.g., Tary-Lahmann et al. (1998) Transplantation 66:219-224). Briefly, PBMCs were seeded at a concentration of 1×10^5/well in 96-well plates coated with anti-human IFN-γ monoclonal antibody (mAb) (Serpime/Nodia) or anti-IL-10 mAb (BD-Pharmingen) in the presence or absence of either PHA (Sigma, 1 μg/ml)+LPS (Sigma, 1 μg/ml), Purified Protein Derivative (PPD, 5 μg/ml), Insulin B9-23 (SEQ ID NO:3 ) (10 and 50 μM), IGF-2 B11-25 (SEQ ID NO:2 )(10 and 50 μM After 48 hours of incubation at 37° C., 5% CO2 on a plane surface, wells were washed three times with PBS Tween 0.25%, then blot dried.
# After 1 hour-incubation in a humid room at ambient temperature, the plates were washed and the substrate AEC (3-amino-9-ethylcarazole)+30% H2O2 were added. After 15 minutes (for IFN-γ) or 30 minutes (for IL-10) of incubation at ambient temperature, spots appeared and the reaction was stopped by washing the plates under water. After drying, the spots were counted by image analyzer assisted by computer with filters specific for each cytokine.
# A Wilcoxon test was used for statistical analyses (non-parametric paired values).
# NOD mice = details: cited from earlier work
# [9] = tested on: CD4-mediated, HLA-II restricted immune response; details: patients with IDDM; cited from earlier work
substance,measurement,setting,value
"IGF-2: rmIGF-2 (R&D Systems), insulin-like growth factor 2 used for mice immunization",anti-IGF-2 humoral response,Igf2-/- and wt mice [1]; Igf2-deficient mice,rapidly induced anti-IGF-2 Abs
same,"anti-IGF-2 T-dependent humoral response (IgG1, IgG2a, IgG2b)",Igf2-/- and wt mice [1]; wt mice,no T-dependent response was observed
insulin: human insulin (Roche) for mice immunization; insulin given orally or subcutaneously in cited trials,protection of residual β cell function,"[2]; oral administration, recent-onset IDDM",failed to protect the residual β cell function
same,delay or prevention of onset of disease,"[2]; subcutaneous administration, high-risk relatives of patients with IDDM",did not delay or prevent the onset of disease
same,"anti-insulin Ig-specific humoral response, Igf2-/- compared with Igf2+/+ mice",Igf2-/- and wt mice [3],higher anti-insulin Ig-specific humoral response
GELVDTLQFVCGDRG (listed as Homo sapiens) [IGF-2 B11-25],number of IL-10 secreting cells versus Insulin B9-23,[4]; PBMCs from healthy controls,no significant difference
same,number of IL-10 secreting cells versus Insulin B9-23,[4]; PBMCs of adult Type 1 diabetics,significantly higher
same,"IL-2 production, Igf2-/- compared with wt mice",[5],significant increase of IL-2 production
same,IL10 transcription,PBMCs [6]; PBMCs from adult Type 1 diabetics,very significantly increases
same,IL10 transcription,PBMCs [6]; PBMCs from healthy controls,very significantly increases
same,IL-10 concentration in supernatants versus basal conditions or Insulin B9-23,PBMCs [7]; PBMC cultures from Type 1 diabetics,significantly increased
same,IL-10 concentration in supernatants versus basal conditions or Insulin B9-23,PBMCs [7]; PBMC cultures from healthy controls,significantly increased
same,"ratio IL-10/IFN-γ, fold higher than after insulin B9-23","[8]; 50 μM, versus insulin B9-23",~7 fold
same,number of IFN-γ secreting cells,[8],45.60±11.67
same,number of IL-10 secreting cells,[8],1162±208.6
same,ratio of IL-10/IFN-γ,[8],67.36±37.58
"SHLVEALYLVCGERG (listed as Homo sapiens) [insulin B9-23, reference compound]",anaphylaxis,NOD mice,induces fatal anaphylaxis
same,incidence of diabetes,NOD mice,accelerates incidence of diabetes
same,IFN-γ production in response to peptide presentation,[9],high production of IFN-γ
same,number of IFN-γ secreting cells,[8],88.90±23.82
same,number of IL-10 secreting cells,[8],701.8±160.9
same,ratio of IL-10/IFN-γ,[8],10.22±1.99
